# Experimental data taken from article PMC3391414 (Journal of Agricultural and Food Chemistry, 2011).
# Entries after “also recorded” stand apart in the source; their conditions may differ.
# Key:
# [1] = biological target: T1, UGT1A1 (Homo sapiens, UniProt P22309); experiment: Glucuronidation by recombinant human UGT1A1
# T1 sequence (P22309 26-533): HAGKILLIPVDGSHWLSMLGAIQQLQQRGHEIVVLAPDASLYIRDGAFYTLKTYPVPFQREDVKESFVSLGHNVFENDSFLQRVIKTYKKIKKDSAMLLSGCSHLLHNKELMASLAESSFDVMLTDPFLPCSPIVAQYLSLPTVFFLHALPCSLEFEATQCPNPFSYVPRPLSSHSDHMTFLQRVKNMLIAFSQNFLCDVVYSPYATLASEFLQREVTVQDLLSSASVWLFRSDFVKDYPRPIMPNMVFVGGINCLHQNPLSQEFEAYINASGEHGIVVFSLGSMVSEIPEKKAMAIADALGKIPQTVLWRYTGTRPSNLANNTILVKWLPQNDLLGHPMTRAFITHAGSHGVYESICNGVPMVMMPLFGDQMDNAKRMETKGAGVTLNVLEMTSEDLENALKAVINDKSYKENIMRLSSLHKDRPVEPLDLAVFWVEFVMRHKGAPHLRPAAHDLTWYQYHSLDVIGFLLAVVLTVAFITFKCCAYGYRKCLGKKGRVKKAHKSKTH
# [2] = biological target: T2, UGT2B7 (Homo sapiens, UniProt P16662); experiment: Glucuronidation by recombinant human UGT2B7; conditions: UGT2B7, substrate 10 μM
# T2 sequence (P16662 24-529): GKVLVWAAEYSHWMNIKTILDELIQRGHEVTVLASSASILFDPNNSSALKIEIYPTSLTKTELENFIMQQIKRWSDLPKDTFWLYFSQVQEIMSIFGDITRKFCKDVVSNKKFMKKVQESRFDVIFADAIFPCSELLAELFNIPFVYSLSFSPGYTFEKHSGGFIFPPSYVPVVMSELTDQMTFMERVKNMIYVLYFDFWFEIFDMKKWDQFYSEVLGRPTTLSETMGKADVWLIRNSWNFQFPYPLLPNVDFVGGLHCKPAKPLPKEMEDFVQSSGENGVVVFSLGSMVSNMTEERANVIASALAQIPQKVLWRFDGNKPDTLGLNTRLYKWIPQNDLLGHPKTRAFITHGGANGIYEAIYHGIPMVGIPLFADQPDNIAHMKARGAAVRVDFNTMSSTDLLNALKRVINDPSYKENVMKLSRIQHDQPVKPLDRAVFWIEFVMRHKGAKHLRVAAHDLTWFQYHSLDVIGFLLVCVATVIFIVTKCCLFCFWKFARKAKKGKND
# [3] = cited from earlier work
# [4] = biological target: T3, UGT1A6 (Homo sapiens, UniProt P19224); experiment: Glucuronidation by recombinant human UGT1A6; conditions: UGT1A6, substrate 10 μM
# T3 sequence (P19224 27-532): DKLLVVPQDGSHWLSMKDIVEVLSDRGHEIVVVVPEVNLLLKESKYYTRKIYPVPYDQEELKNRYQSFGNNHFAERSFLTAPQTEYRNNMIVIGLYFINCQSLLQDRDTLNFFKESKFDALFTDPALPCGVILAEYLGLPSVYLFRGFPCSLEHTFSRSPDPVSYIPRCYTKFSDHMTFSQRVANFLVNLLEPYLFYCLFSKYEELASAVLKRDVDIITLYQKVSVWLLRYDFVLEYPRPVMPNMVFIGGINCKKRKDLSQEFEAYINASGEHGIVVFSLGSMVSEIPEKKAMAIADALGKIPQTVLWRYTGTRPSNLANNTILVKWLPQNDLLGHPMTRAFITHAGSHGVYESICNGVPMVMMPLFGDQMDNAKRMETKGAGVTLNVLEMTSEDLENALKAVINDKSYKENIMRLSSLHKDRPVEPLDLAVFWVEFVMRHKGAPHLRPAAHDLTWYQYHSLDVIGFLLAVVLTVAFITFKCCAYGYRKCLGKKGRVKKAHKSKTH
# [5] = biological target: T4, UGT1A3 (Homo sapiens, UniProt P35503); conditions: pH 7.4
# T4 sequence (P35503 29-534): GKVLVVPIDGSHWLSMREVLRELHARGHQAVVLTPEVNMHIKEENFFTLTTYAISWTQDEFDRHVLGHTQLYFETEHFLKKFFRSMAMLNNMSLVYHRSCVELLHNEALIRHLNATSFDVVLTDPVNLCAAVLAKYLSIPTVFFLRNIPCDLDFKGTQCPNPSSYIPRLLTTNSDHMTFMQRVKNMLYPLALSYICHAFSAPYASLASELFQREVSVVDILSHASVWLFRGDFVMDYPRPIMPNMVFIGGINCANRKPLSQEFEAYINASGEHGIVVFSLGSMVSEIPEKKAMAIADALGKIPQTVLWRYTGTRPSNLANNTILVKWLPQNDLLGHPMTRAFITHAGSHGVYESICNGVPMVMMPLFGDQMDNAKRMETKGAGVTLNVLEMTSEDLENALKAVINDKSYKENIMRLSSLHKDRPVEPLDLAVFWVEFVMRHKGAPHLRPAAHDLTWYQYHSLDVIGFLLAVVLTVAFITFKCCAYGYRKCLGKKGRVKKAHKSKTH
# [6] = biological target: T5, UGT1A8 (Homo sapiens, UniProt Q9HAW9); conditions: 10 μM, pH 7.4
# T5 sequence (Q9HAW9 26-530): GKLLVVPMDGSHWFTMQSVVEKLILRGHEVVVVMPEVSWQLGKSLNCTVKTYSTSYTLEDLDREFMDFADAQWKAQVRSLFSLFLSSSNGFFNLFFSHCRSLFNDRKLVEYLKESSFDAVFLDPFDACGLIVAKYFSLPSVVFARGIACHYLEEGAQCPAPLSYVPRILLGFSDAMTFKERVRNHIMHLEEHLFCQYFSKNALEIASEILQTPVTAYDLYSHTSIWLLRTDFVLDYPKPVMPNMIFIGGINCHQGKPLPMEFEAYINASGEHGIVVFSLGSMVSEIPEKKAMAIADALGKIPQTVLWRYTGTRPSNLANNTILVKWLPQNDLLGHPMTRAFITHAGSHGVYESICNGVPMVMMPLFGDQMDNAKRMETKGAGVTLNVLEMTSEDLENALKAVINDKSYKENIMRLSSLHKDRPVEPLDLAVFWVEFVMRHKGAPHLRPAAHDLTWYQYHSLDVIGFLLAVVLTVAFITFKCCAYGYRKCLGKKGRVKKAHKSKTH
SMILES,"Degree of regiospecificity (major glucuronide in bracket) ([1]; UGT1A1, substrate 2.5 μM)","Degree of regiospecificity (major glucuronide in bracket) ([1]; UGT1A1, substrate 2.5 μM, listed as 5,7,4’THFnol)","Degree of regiospecificity (major glucuronide in bracket) ([1]; UGT1A1, substrate 10 μM)","Hydroxyl positions glucuronidated ([1]; UGT1A1, substrate 10 μM)","Degree of regiospecificity (major glucuronide in bracket) ([1]; UGT1A1, substrate 10 μM, listed as 5,7,4’THFnol)","Degree of regiospecificity (3-O vs 7-O) ([1]; UGT1A1, substrate 35 μM)",Hydroxyl positions glucuronidated [2],Predominant form in plasma ([3]; after oral intake in human),Hydroxyl positions glucuronidated [4],Glucuronide predominantly formed ([3]; human volunteers),Degree of regiospecificity (major glucuronide in bracket) ([5]; 2.5 μM),Hydroxyl positions glucuronidated ([5]; 10 μM),Hydroxyl positions glucuronidated [6]
"O=c1c(O)c(-c2ccc(O)cc2)oc2cc(O)cc(O)c12 [5,7,4'THFnol, 3,5,7,4’-tetrahydroxyflavone]",Weak (7-O),weakly preferred the glucuronidation of 7-O position,"No (3-O, 7-O)","glucuronidated 3-O, 7-O and 4’-O",no regiospecific preference between 3-O and 7-O; also recorded: no regiospecificity,no regiospecificity,glucuronidated only 7-O and 4’-O,3-O-glucuronide of kaempferol was found to be the predominant form in plasma,glucuronidated only 7-O and 4’-O,,,,
"O=c1cc(-c2ccccc2)oc2cc(O)cc(O)c12 [5,7DHF, 5,7-dihydroxyflavone]",,,,,,,,,,predominantly form 7-O-glucuronide,Dominant (7-O),glucuronidated 7-O position only,glucuronidated 7-O position only
